The source of these data is patent US3945994A, “Novel acid compounds” (Gist-Brocades N.V., priority 1973, dated 1976).

Common to all, as to type: cell-based
Assay [1] relates to Pseudomonas aeruginosa H 10. The conditions noted are these: H10, agar serial dilution, 24 hours at 37°C.
Assay [2] concerns Staphylococcus aureus A 321. The following applies: A321, agar serial dilution, 24 hours at 37°C.
In assay [3] the test system is Pseudomonas aeruginosa 2396. The conditions noted are these: agar serial dilution, 24 hours at 37°C.
Assay [4] deals with Klebsiella pneumoniae A 809. The following applies: A809, agar serial dilution, 24 hours at 37°C.
Another assay has as its system Escherichia coli U 20. The following applies: U20, agar serial dilution, 24 hours at 37°C.
In a further assay the test system is Proteus mirabilis A 1200. The following applies: A1200, agar serial dilution, 24 hours at 37°C.
The test system of assay [5] is Streptococcus faecalis L 80. The following applies: Enterococcus faecalis, L80; agar serial dilution, 24 hours at 37°C.
The next assay concerns Proteus mirabilis H 3. The conditions noted are these: H3, agar serial dilution, 24 hours at 37°C.
For another assay, the system named is Proteus morganii 2241. The conditions noted are these: Morganella morganii, agar serial dilution, 24 hours at 37°C.
In assay [6] the test system is Staphylococcus aureus A 355'. The following applies: agar serial dilution, 24 hours at 37°C.
The test system of assay [7] is Pasteurella multocida A 723. The conditions noted are these: A723, agar serial dilution, 24 hours at 37°C.
Assay [8] relates to Diplococcus pneumoniae L 54. The conditions noted are these: Streptococcus pneumoniae, L54; agar serial dilution, 24 hours at 37°C.
Assay [9] relates to Staphylococcus aureus A 2001. The following applies: A2001, agar serial dilution, 24 hours at 37°C.
Assay [10] concerns Salmonella typhimurium R 127. The conditions noted are these: Salmonella enterica, agar serial dilution, 24 hours at 37°C.
Assay [11] concerns Streptococcus haemolyticus A 266. The following applies: A266, agar serial dilution, 24 hours at 37°C.
In assay [12] the test system is Proteus rettgeri A 821. The conditions noted are these: Providencia rettgeri, A821; agar serial dilution, 24 hours at 37°C.
For assay [13], the system named is Haemophilus influenzae A 1030. The conditions noted are these: A1030, agar serial dilution, 24 hours at 37°C.
Assay [14] has as its system Pseudomonas aeruginosa Wyeth A 1058. The following applies: WYETHA1058, agar serial dilution, 24 hours at 37°C.
In a further assay the test system is Salmonella dublin P 43. The conditions noted are these: Salmonella enterica, P43; agar serial dilution, 24 hours at 37°C.
Assay [15] relates to Bacillus subtilis ATCC 6633. The following applies: ATCC6633, agar serial dilution, 24 hours at 37°C.
Assay [16] deals with Staphylococcus aureus A 2000. The following applies: A2000, agar serial dilution, 24 hours at 37°C.
In assay [17] the test system is Salmonella typhimurium R172. The following applies: Salmonella enterica, agar serial dilution, 24 hours at 37°C.
Assay [18] deals with Proteus rettgeri A 821. The assay is described as follows: micro serial dilution test, MIC. The conditions noted are these: Providencia rettgeri, A821; micro serial dilution (between brackets), 30°C or 37°C, about 18 hours.
The subject of assay [19] is Haemophilus influenzae A 1030. Put plainly: micro serial dilution test, MIC. The following applies: A1030, micro serial dilution (between brackets), 30°C or 37°C, about 18 hours.
Assay [20] concerns Streptococcus haemolyticus A 1088. The following applies: A1088, agar serial dilution, 24 hours at 37°C.
A further assay relates to Proteus mirabilis H3. The assay is described as follows: micro serial dilution test, MIC. The following applies: micro serial dilution (between brackets), 30°C or 37°C, about 18 hours.
For a further assay, the system named is Proteus mirabilis A1200. Put plainly: micro serial dilution test, MIC. The following applies: micro serial dilution (between brackets), 30°C or 37°C, about 18 hours.

In brackets after ≈: the same amount, converted by molar mass. Like-named read-outs stand apart in the source and are kept apart here.

Take `CCOC(=O)NNS(=O)(=O)NC(=O)N[C@@H](C(=O)N[C@@H]1C(=O)N2[C@@H]1SC(C)(C)[C@@H]2C(=O)O)c1ccccc1` [XV, D-6-[α-{3-(ethoxycarbonylhydrazinosulfonyl)-ureido}benzylcarbonamido]-penicillanic acid]: the MIC in assay [1] is more than 100 µg/mL; in assay [2] it was 1.5 µg/mL (≈ 2.69 µM); in assay [3] it was 50 µg/mL (≈ 89.5 µM); in assay [4], 100 µg/mL (≈ 179 µM); with Escherichia coli U 20 it was 12.5 µg/mL (≈ 22.4 µM); in the assay with Proteus mirabilis A 1200 it was 1.5 µg/mL (≈ 2.69 µM). Moreover, the MIC in assay [5] came out at 25 µg/mL (≈ 44.8 µM); against Proteus mirabilis H 3 it was 3 µg/mL (≈ 5.37 µM); against Proteus morganii 2241, 6 µg/mL (≈ 10.7 µM); in [6], 12.5 µg/mL (≈ 22.4 µM); in [7] it was 0.25 µg/mL (≈ 0.448 µM); in assay [8] it was 9 µg/mL (≈ 16.1 µM). In addition, the MIC in [9] is 6 µg/mL (≈ 10.7 µM); in assay [10], 50 µg/mL (≈ 89.5 µM); in [11] it was 0.5 µg/mL (≈ 0.895 µM); against Proteus rettgeri A 821 [12] it was 1 µg/mL (≈ 1.79 µM); in [13] it was 1.5 µg/mL (≈ 2.69 µM); in assay [14], 100 µg/mL (≈ 179 µM). In addition, the MIC was 12.5 µg/mL (≈ 22.4 µM) against Salmonella dublin P 43, 1 µg/mL (≈ 1.79 µM) in assay [15] and 12.5 µg/mL (≈ 22.4 µM) in assay [16].

With `CC1(C)S[C@@H]2[C@H](NC(=O)[C@H](NC(=O)NS(=O)(=O)NCc3ccccc3)c3ccccc3)C(=O)N2[C@H]1C(=O)O` [XXXII, D-6-[α-{3-(benzylaminosulfonyl)-ureido}-benzylcarbonamido]-penicillanic acid], the MIC is 100 µg/mL (≈ 178 µM) in assay [1]; 25 µg/mL (≈ 44.5 µM) in assay [3]; 12.5 µg/mL (≈ 22.3 µM) in assay [4]; 6 µg/mL (≈ 10.7 µM) in the assay with Escherichia coli U 20; 3 µg/mL (≈ 5.34 µM) in the assay with Proteus mirabilis A 1200; 12.5 µg/mL (≈ 22.3 µM) in assay [5]. Also, the MIC was found to be 6 µg/mL (≈ 10.7 µM) in the assay with Proteus mirabilis H 3; 12.5 µg/mL (≈ 22.3 µM) in the assay with Proteus morganii 2241; 6 µg/mL (≈ 10.7 µM) in assay [6]; 0.5 µg/mL (≈ 0.89 µM) in assay [7]; 50 µg/mL (≈ 89 µM) in assay [8]; 6 µg/mL (≈ 10.7 µM) in [9]. For the same compound, the MIC in assay [17] was determined as 25 µg/mL (≈ 44.5 µM); with Proteus rettgeri A 821 [18], 0.025 µg/mL (≈ 0.0445 µM); in assay [19], 23 µg/mL (≈ 41 µM); in assay [20], 0.25 µg/mL (≈ 0.445 µM); in assay [14] it was 12.5 µg/mL (≈ 22.3 µM); with Salmonella dublin P 43 it was 6 µg/mL (≈ 10.7 µM). Moreover, the MIC was determined as 0.5 µg/mL (≈ 0.89 µM) in assay [15] and 6 µg/mL (≈ 10.7 µM) in assay [16].

Take `CC1(C)S[C@@H]2[C@H](NC(=O)C(C(=O)O)c3ccccc3)C(=O)N2[C@H]1C(=O)O` (stereo partly shown) [carbenicillin, reference compound]: the MIC in [1] was 100 µg/mL (≈ 264 µM); in [2] it was 0.75 µg/mL (≈ 1.98 µM); in assay [3] it was 25 µg/mL (≈ 66.1 µM); in [4] it was more than 100 µg/mL; with Escherichia coli U 20, 1.5 µg/mL (≈ 3.96 µM); in [5], 25 µg/mL (≈ 66.1 µM). In addition, the MIC against Proteus morganii 2241 was 1.5 µg/mL (≈ 3.96 µM); against Proteus mirabilis H3 it was 0.6 µg/mL (≈ 1.59 µM); against Proteus mirabilis A1200 it was 0.45 µg/mL (≈ 1.19 µM); in [7] it was 0.25 µg/mL (≈ 0.661 µM); in assay [8], 0.5 µg/mL (≈ 1.32 µM); in [9], 3 µg/mL (≈ 7.93 µM). Moreover, the MIC in assay [17] turned out to be 6 µg/mL (≈ 15.9 µM); in the assay with Proteus rettgeri A 821 [18], 0.12 µg/mL (≈ 0.317 µM); in assay [19], 90 µg/mL (≈ 238 µM); in assay [20], 0.25 µg/mL (≈ 0.661 µM); in assay [14], 25 µg/mL (≈ 66.1 µM); in the assay on Salmonella dublin P 43, 1.5 µg/mL (≈ 3.96 µM). Also, the MIC stood at 0.06 µg/mL (≈ 0.159 µM) in [15] and 3 µg/mL (≈ 7.93 µM) in assay [16].
